Source: publication PMC10458253, “Unraveling the In Vitro Toxicity Profile of Psychedelic 2C Phenethylamines and Their N-Benzylphenethylamine (NBOMe) Analogues” (Pharmaceuticals, 2023)
Where a name gives a salt, the structure may show the parent alone.

Tests used:
[1] = PAMPA-BBB permeability assay
Source text: In the present study we used a Parallel Artificial Membrane Permeation Assay (PAMPA) with a membrane mimicking the BBB phospholipidic composition (PAMPA-BBB) to evaluate and predict passive, transcellular permeability of the mescaline-NBOMe, 25B-NBOMe and 25N-NBOMe drugs.
The PiON inc database software was used for data analysis.

[2] = tested on: HepG2 cells; assay: Intracellular ROS (DCFH-DA probe), HepG2; type: cell-based; details: HepG2, positive control, 200 µM, 24 h, vs control cells (0 µM)
Protocol: (§1) ROS production was evaluated by using the well-known membrane permeable fluorescent probe 2′,7′-dichlorofluorescein diacetate (DCFH-DA). Both cell lines were seeded in 96-well cell culture plates, and pre-incubated with 10 µM DCFH-DA, protected from light, at 37 °C, in a 5% CO2–95% air atmosphere. After 30 min, DCFH-DA was removed, and the cells were exposed to the drugs (0–500 µM for SH-SY5Y cells and 0–1000 µM for HepG2 cells), at 37 °C, in a 5% CO2–95% air atmosphere. Subsequently, after 24 h of exposure, the fluorescence was measured at 485 nm excitation and 530 nm emission wavelengths in a multi-well plate reader (PowerWaveX BioTek Instruments, Winooski, VT, USA). Additionally, tert-butyl hydroperoxide (200 µM, 24 h) was used as a positive control for ROS overproduction. The results were expressed as percentage of control cells. At least four independent experiments were performed, in triplicate.

[3] = tested on: differentiated SH-SY5Y cells; assay: Intracellular ROS (DCFH-DA probe), differentiated SH-SY5Y; type: cell-based; details: positive control, 200 µM, 24 h, vs negative control cells
Protocol: Reactive oxygen species (ROS) production was evaluated using the 2′,7′-dichlorofluorescein diacetate (DCFH-DA) probe. In the cytoplasm, DCFH-DA is hydrolyzed producing 2′,7′-dichlorodihydrofluorescein (DCFH) that, in the presence of ROS, is easily oxidized to the highly fluorescent 2′,7′-dichlorofluorescein (DCF).
as §1

[4] = pH 7.4; cited from earlier work

Row | Compound | −Log Pe ± SD [1] | also measured
1 | C=C[C@H]1C[N@@]2CC[C@H]1C[C@@H]2[C@@H](O)c1ccnc2ccc(OC)cc12 [Quinidine. HCl, reference compound] | 4.8 ± 0.39 | 
2 | CC(=O)[C@H]1CC[C@H]2[C@@H]3CCC4=CC(=O)CC[C@]4(C)[C@H]3CC[C@]12C [Progesterone, reference compound] | 4.5 ± 0.44 | 
3 | CC(C)NCC(O)COc1cccc2ccccc12 (stereo not drawn) [Propanolol. HCl, reference compound] | 4.6 ± 0.42 | 
4 | CC(C)(C)OO [t-BHP, tert-butyl hydroperoxide] |  | ROS intracellular levels [2]: significant increase in ROS levels; ROS intracellular levels [3]: significant increase in ROS intracellular levels
5 | CC(=O)Nc1ccccc1 [Acetanilide] |  | CHI (IAM) [4]: 11.57
